Reference: EP0514216A1, “Antihypotensive benzofuran derivatives with N-linked 1H-imidazolyl-methyl-5-carboxamide substituents” (GLAXO GROUP LIMITED, priority 1991, dated 1992)

System: renal-ligated hypertensive rats
Test: anti-hypertensive activity in vivo using renal-ligated hypertensive rats
Design: unit not given here
Conditions: for Reduction in diastolic blood pressure after 7h. i.a.: 0.5mg/kg intra-arterially (i.a.); for Reduction in diastolic blood pressure after 7h. p.o.: 0.5mg/kg orally (p.o.)
Description: Compounds of the present invention are also analysed for their anti-hypertensive activity in vivo using renal-ligated hypertensive rats.

SMILES | Reduction in diastolic blood pressure after 7h. i.a. | Reduction in diastolic blood pressure after 7h. p.o.
CCc1nc(Cl)c(C(N)=O)n1Cc1ccc2oc(-c3ccccc3NS(=O)(=O)C(F)(F)F)c(Br)c2c1 [Example 1, 1-[[3-Bromo-2-[2-[[(trifluoromethyl)sulphonyl]amino]phenyl]-5-benzofuranyl]methyl]-4-chloro-2-ethyl-1H-imidazole-5-carboxamide] | -49 | -55
CCc1nc(C)c(C(=O)NC)n1Cc1ccc2oc(-c3ccccc3NS(=O)(=O)C(F)(F)F)c(Br)c2c1 [Example 13, 1-[[3-Bromo-2-[2-[[(trifluoromethyl)sulphonyl]amino]phenyl]-5-benzofuranyl]methyl]-2-ethyl-4-methyl-N-methyl-1H-imidazole-5-carboxamide] | -39 | -54
CCCc1nc(Cl)c(C(=O)NC)n1Cc1ccc2oc(-c3ccccc3NS(=O)(=O)C(F)(F)F)c(Br)c2c1 [Example 2, 1-[[3-Bromo-2-[2-[[(trifluoromethyl)sulphonyl]amino]phenyl]-5-benzofuranyl]methyl]-4-chloro-N-methyl-2-propyl-1H-imidazole-5-carboxamide] | -43 | -60
CCc1nc(Cl)c(C(=O)NC)n1Cc1ccc2oc(-c3ccccc3NS(=O)(=O)C(F)(F)F)c(Br)c2c1 [Example 12, 1-[[3-Bromo-2-[2-[[(trifluoromethyl)sulphonyl]amino]phenyl]-5-benzofuranyl]methyl]-4-chloro-2-ethyl-N-methyl-1H-imidazole-5-carboxamide] | -42 | -31
